Experimental data as given in patent publication US20170119892A1, “REFILLABLE DRUG DELIVERY DEVICES AND METHODS OF USE THEREOF” (President and Fellows of Harvard College, priority 2014, published 2017).

Columns and labels:
[1] = tested on: MDA-MB-231 xenograft tumors; assay: Xenograft tumor study with drug refilling; type: in vivo, J:Nu mice; settings: 120 ug doxorubicin per animal IV weekly
Method: Tumors were created by injecting 10^6 MDA-MB-231 cells (American Type Culture Collection, VA) combined with Matrigel (BD Biosciences, CA) to a total volume of 200 μL (100 μL PBS and 100 μL Matrigel) into the hind limbs of 8 week old J:Nu (Foxn1^nu/Foxn1^nu) mice (Jackson Labs, ME). 35 days following tumor inoculation tumors were injected with alginate gels. 20 mg/mL alginate conjugated to DNA (thioT-SH or unconjugated) was mixed with doxorubicin (1.6 mg drug per mL of gel), then crosslinked with 4% wt/v CaSO4 (1.22 M) and then 50 μL of gel were injected into tumors with a 23-gauge needle. 2, 3, 4, and 5 weeks after initial tumoral gel injection, mice were injected retro-orbitally with 100 μL 0.5% DNA-conjugated alginate carrying doxorubicin (5% oxidized alginate, thioA-SH, Dye-750, 160 ug Dox-hydrazide=120 μg Dox). Throughout the study, tumor area was measured twice per week with digital calipers in two dimensions and the product of the two dimensional values was used to approximate tumor area. Mice were sacrificed on day 49. […]
Immunocompromised mice bearing MDA-MB-231 xenograft tumors were injected intra-tumor with phosphorothioate DNA-conjugated alginate gels releasing doxorubicin (80 ug per animal) or bolus doxorubicin in PBS. […] The ability of targeted therapy to reduce tumor size was assessed by monitoring the change in tumor size in the three days following each IV administration.

[2] = tested on: Alginate conjugated to (T)20 oligonucleotides, ionically crosslinked with calcium to form a gel; assay: Binding of fluorescently-labeled oligonucleotides to DNA-conjugated calcium-alginate gels in vitro; settings: phosphate buffer with 1 mM calcium chloride
[3] = Alginate circulation time in the blood; type: in vivo, C57/B6 mice
Method: C57/B6 mice were injected retro-orbitally with 100 μL 0.5% fluorescent alginate (unoxidized alginate, Dye-750). Mice were shaved on the front and back and imaged with an IVIS Spectrum in vivo imager (ex: 745, em: 820) over 30 days. Shaving was repeated before every image collection. Fluorescence in the blood was measured through quantification of fluorescence in the snout area.
Efficient blood-based refilling of drug payloads relies on sufficient circulation lifetimes that allow payloads to encounter and bind to the primary device. The circulation time of alginate (285 KDa, 44 nm hydrodynamic radius (Rh)) conjugated to a near-IR probe (FIG. 6A) was analyzed following intravenous (IV) administration to mice. […] With a long circulation time, alginate can serve as an efficient intra-vascular drug carrier with the capability of extravasating and interacting with the primary drug delivery device.

## COc1cccc2c1C(=O)c1c(O)c3c(c(O)c1C2=O)C[C@@](O)(C(=O)CO)C[C@@H]3O[C@H]1C[C@H](N)[C@H](O)[C@H](C)O1 [doxorubicin]
[1]
  change in tumor size in the three days following each IV administration: continued to grow

## (A)20: fluorescently-labeled AAAAAAAAAAAAAAAAAAAA-FAM oligonucleotide, SEQ ID NO: 6
[2]
  binding of fluorescently-labeled oligonucleotides to gel surface: bound to the gel surface in a sequence-specific manner

## (T)20: fluorescently-labeled TTTTTTTTTTTTTTTTTTTT-FAM oligonucleotide, SEQ ID NO: 5
[2]
  binding of fluorescently-labeled oligonucleotides to gel surface: little binding

## alginate
[3]; IV administration to mice
  circulatory half-life: about seven
[3]; IV administration to mice, blood fluorescence measured at snout
  remained in circulation: at least 14 days
[3]; two days after injection
  organ accumulation (imaging of individual organs): accumulation in the lungs, liver, spleen, and to a lesser extent in the kidneys
